Assay results as given in patent US20260200897A1, “4-((5-(3-(4-(PYRIDIN-2-YL)CYCLOPENTYL)-1H-PYRAZOL-3-YL)AMINO)-BENZENESULFONAMIDE DERIVATIVES AND SIMILAR COMPOUNDS AS CDK INHIBITORS FOR THE TREATMENT OF CANCER” (BeOne Medicines I GmbH, priority 2023, published 2026).

Legend:
[1] = target: CDK1/Cyclin B1 (Homo sapiens, UniProt P06493); assay: CDK1/Cyclin B1 TR-FRET biochemical assay, 0.015 mM ATP; settings: 0.15 μM Rb (Ser780)-biotin substrate, 120 min reaction, Table 1
Method: (§1) Compounds disclosed herein were tested for inhibition of CDK2/Cyclin E1 or CDK1/Cyclin B1 kinase in an assay based on the time-resolved fluorescence-resonance energy transfer (TR-FRET) methodology. The assay was carried out in 384-well low volume black plates in a reaction mixture containing CDK2/Cyclin E1 or CDK1/Cyclin B1, 0.060 mM ATP for CDK2/Cyclin E1 or 0.015 mM ATP for CDK1/Cyclin B1, 0.15 μM Rb (Ser780)-biotin substrate and 0-10 μM compound in buffer containing 50 mM HEPES pH7.0, 0.02% NaN3, 0.01% BSA, 0.1 mM Orthovanadate, 50 mM MgCl2, 1 mM DTT and 0.005% Tween-20. The kinase was incubated with compound for 60 minutes at room temperature and the reaction was initiated by the addition of ATP and Rb (Ser780)-biotin substrate. After reaction at room temperature for 120 minutes, an equal volume of stop/detection solution was added according to the manufacture's instruction (Cisbio Bioassays). The stop/detection solution contained Streptavidin-XL665 and Anti-pRb (Ser780) mAb-Eu Cryptate in Detection buffer (Cisbio Bioassays). Plates were incubated at room temperature for 60 minutes, and the TR-FRET signals (ex337 nm, em665 nm/620 nm) were recorded on a PHERAstar FSX plate reader (BMG Labtech). The inhibition percentage of CDK2/Cyclin E1 or CDK1/Cyclin B1 kinase activity in presence of increasing concentrations of compounds was calculated based on the ratio of fluorescence at 665 nm to that at 620 nm. The IC50 for each compound was derived from fitting the data to the four-parameter logistic equation by Dotmatics.

[2] = target: CDK2/Cyclin E1 (Homo sapiens, UniProt P24941); assay: CDK2/Cyclin E1 TR-FRET biochemical assay, 0.060 mM ATP; settings: 0.15 μM Rb (Ser780)-biotin substrate, 120 min reaction, Table 1
Method: as §1

Sequence of CDK1/Cyclin B1 (P06493 whole entry): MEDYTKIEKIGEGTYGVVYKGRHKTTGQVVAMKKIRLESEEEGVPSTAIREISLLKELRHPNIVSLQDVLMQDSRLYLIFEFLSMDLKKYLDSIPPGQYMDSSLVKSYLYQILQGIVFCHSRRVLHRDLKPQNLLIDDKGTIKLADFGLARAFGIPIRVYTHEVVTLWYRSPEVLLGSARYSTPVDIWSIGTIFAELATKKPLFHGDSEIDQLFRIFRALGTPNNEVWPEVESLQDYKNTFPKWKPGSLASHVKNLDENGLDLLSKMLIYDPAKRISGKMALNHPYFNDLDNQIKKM
Sequence of CDK1/Cyclin B1 (P14635 whole entry partner): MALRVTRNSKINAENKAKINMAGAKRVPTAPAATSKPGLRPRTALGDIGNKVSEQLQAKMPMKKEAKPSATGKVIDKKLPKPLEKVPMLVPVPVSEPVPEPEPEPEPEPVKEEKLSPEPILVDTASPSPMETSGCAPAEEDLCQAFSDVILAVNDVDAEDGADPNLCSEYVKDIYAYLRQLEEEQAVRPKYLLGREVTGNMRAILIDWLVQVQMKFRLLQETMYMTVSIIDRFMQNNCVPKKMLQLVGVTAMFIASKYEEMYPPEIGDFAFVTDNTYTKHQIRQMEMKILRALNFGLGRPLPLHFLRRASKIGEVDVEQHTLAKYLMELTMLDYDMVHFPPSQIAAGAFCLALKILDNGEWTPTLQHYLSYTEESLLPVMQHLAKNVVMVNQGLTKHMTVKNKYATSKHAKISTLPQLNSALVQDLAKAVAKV

| SMILES | IC50 [1] [nM] | IC50 [2] [nM] |
| --- | --- | --- |
| CC(C)n1cnnc1O[C@@H]1CC[C@H](c2cc(Nc3ccc4c(c3F)CNS4(=O)=O)n[nH]2)C1 (relative stereo) [Example 57, cis-4-fluoro-5-((5-(3-((4-isopropyl-4H-1,2,4-triazol-3-yl)oxy)cyclopentyl)-1H-pyrazol-3-yl)amino)-2,3-dihydrobenzo[d]isothiazole 1,1-dioxide] | 8300 | 341 |
| CC(C)N1CC(=O)N([C@H]2CC[C@@H](c3cc(Nc4ccc5c(c4F)CNS5(=O)=O)n[nH]3)C2)C1=O (relative stereo) [Example 82, cis-3-(3-(3-((4-fluoro-1,1-dioxido-2,3-dihydrobenzo[d]isothiazol-5-yl)amino)-1H-pyrazol-5-yl)cyclopentyl)-1-isopropylimidazolidine-2,4-dione] | > 10000 | 602 |
| Cn1nccc1O[C@@H]1CC[C@H](c2cc(Nc3ccc4c(c3F)CNS4(=O)=O)n[nH]2)C1 (relative stereo) [Example 63, cis-4-fluoro-5-((5-(3-((1-methyl-1H-pyrazol-5-yl)oxy)cyclopentyl)-1H-pyrazol-3-yl)amino)-2,3-dihydrobenzo[d]isothiazole 1,1-dioxide] | 3120 | 90 |
| O=c1ccon1[C@H]1CC[C@@H](c2cc(Nc3ccc4c(c3F)CNS4(=O)=O)n[nH]2)C1 (relative stereo) [Example 49, cis-2-(3-(3-((4-fluoro-1,1-dioxido-2,3-dihydrobenzo[d]isothiazol-5-yl)amino)-1H-pyrazol-5-yl)cyclopentyl)isoxazol-3 (2H)-one] | 2560 | 478 |
| O=c1c(-c2ccccc2)ccnn1[C@H]1CC[C@@H](c2cc(Nc3ccc4c(c3F)CNS4(=O)=O)n[nH]2)C1 (relative stereo) [Example 30, cis-2-(3-(3-((4-fluoro-1,1-dioxido-2,3-dihydrobenzo[d]isothiazol-5-yl)amino)-1H-pyrazol-5-yl)cyclopentyl)-4-phenylpyridazin-3 (2H)-one] | > 10000 | 2080 |
| Cc1n[nH]cc1O[C@@H]1CC[C@H](c2cc(Nc3ccc4c(c3F)CNS4(=O)=O)n[nH]2)C1 (relative stereo) [Example 79, cis-4-fluoro-5-((5-(3-((3-methyl-1H-pyrazol-4-yl)oxy)cyclopentyl)-1H-pyrazol-3-yl)amino)-2,3-dihydrobenzo[d]isothiazole 1,1-dioxide] | 486 | 10 |
| O=S1(=O)NCc2c1ccc(Nc1cc([C@H]3CC[C@@H](Oc4cn[nH]c4)C3)[nH]n1)c2F (relative stereo) [Example 76, cis-5-((5-(3-((1H-pyrazol-4-yl)oxy)cyclopentyl)-1H-pyrazol-3-yl)amino)-4-fluoro-2,3-dihydrobenzo[d]isothiazole 1,1-dioxide] | 1610 | 53 |
| CC(C)c1csnc1O[C@@H]1CC[C@H](c2cc(Nc3ccc4c(c3F)CNS4(=O)=O)n[nH]2)C1 (relative stereo) [Example 55, cis-4-fluoro-5-((5-(3-((4-isopropylisothiazol-3-yl)oxy)cyclopentyl)-1H-pyrazol-3-yl)amino)-2,3-dihydrobenzo[d]isothiazole 1,1-dioxide] | 486 | 14 |
| CC(C)n1ccn([C@H]2CC[C@@H](c3cc(Nc4ccc5c(c4F)CNS5(=O)=O)n[nH]3)C2)c1=O (relative stereo) [Example 83, cis-1-(3-(3-((4-fluoro-1,1-dioxido-2,3-dihydrobenzo[d]isothiazol-5-yl)amino)-1H-pyrazol-5-yl)cyclopentyl)-3-isopropyl-1,3-dihydro-2H-imidazol-2-one] | > 10000 | 710 |
| CC(C)c1cn[nH]c1O[C@@H]1CC[C@H](c2cc(Nc3ccc4c(c3F)CNS4(=O)=O)n[nH]2)C1 (relative stereo) [Example 60, cis-4-fluoro-5-((5-(3-((4-isopropyl-1H-pyrazol-5-yl)oxy)cyclopentyl)-1H-pyrazol-3-yl)amino)-2,3-dihydrobenzo[d]isothiazole 1,1-dioxide] | 732 | 12 |
| CCc1cnc(C2CCC(c3cc(Nc4ccc5c(c4F)CNS5(=O)=O)n[nH]3)C2)o1 (stereo not drawn) [Example 92, 5-((5-(3-(5-ethyloxazol-2-yl)cyclopentyl)-1H-pyrazol-3-yl)amino)-4-fluoro-2,3-dihydrobenzo[d]isothiazole 1,1-dioxide] | 509 | 21 |
| O=S1(=O)NCc2c1ccc(Nc1cc([C@H]3CC[C@@H](Oc4ccn[nH]4)C3)[nH]n1)c2F (relative stereo) [Example 62, cis-5-((5-(3-((1H-pyrazol-5-yl)oxy)cyclopentyl)-1H-pyrazol-3-yl)amino)-4-fluoro-2,3-dihydrobenzo[d]isothiazole 1,1-dioxide] | 571 | 24 |

Now those with a lower IC50 [1], led by results:

| IC50 [1] [nM] | IC50 [2] [nM] | SMILES |
| --- | --- | --- |
| 198 | 12 | CCOC(=O)c1cn[nH]c1O[C@H]1CC[C@@H](c2cc(Nc3ccc4c(c3F)CNS4(=O)=O)n[nH]2)C1 (relative stereo) [Example 68, cis-ethyl 5-((3-(3-((4-fluoro-1,1-dioxido-2,3-dihydrobenzo[d]isothiazol-5-yl)amino)-1H-pyrazol-5-yl)cyclopentyl)oxy)-1H-pyrazole-4-carboxylate] |
| 237 | 7.6 | CC1(C)NC(=O)N(C2CCC(c3cc(Nc4ccc5c(c4F)CNS5(=O)=O)n[nH]3)C2)C1=O (single isomer, unassigned) [Example 84a, cis-3-(3-(3-((4-fluoro-1,1-dioxido-2,3-dihydrobenzo[d]isothiazol-5-yl)amino)-1H-pyrazol-5-yl)cyclopentyl)-5,5-dimethylimidazolidine-2,4-dione] |
| 445 | 12 | CC(C)c1n[nH]cc1O[C@@H]1CC[C@H](c2cc(Nc3ccc4c(c3F)CNS4(=O)=O)n[nH]2)C1 (relative stereo) [Example 73, cis-4-fluoro-5-((5-(3-((3-isopropyl-1H-pyrazol-4-yl)oxy)cyclopentyl)-1H-pyrazol-3-yl)amino)-2,3-dihydrobenzo[d]isothiazole 1,1-dioxide] |
| 49 | 5.7 | Cc1ccnnc1O[C@@H]1CC[C@H](c2cc(Nc3ccc4c(c3F)CNS4(=O)=O)n[nH]2)C1 (relative stereo) [Example 24, cis-4-fluoro-5-((5-(3-((4-methylpyridazin-3-yl)oxy)cyclopentyl)-1H-pyrazol-3-yl)amino)-2,3-dihydrobenzo[d]isothiazole 1,1-dioxide] |
| 289 | 31 | CC1(C)CN([C@H]2CC[C@@H](c3cc(Nc4ccc5c(c4F)CNS5(=O)=O)n[nH]3)C2)C(=O)N1 (relative stereo) [Example 85, cis-1-(3-(3-((4-fluoro-1,1-dioxido-2,3-dihydrobenzo[d]isothiazol-5-yl)amino)-1H-pyrazol-5-yl)cyclopentyl)-4,4-dimethylimidazolidin-2-one] |
| 142 | 14 | CC1(C)NC(=O)N(C2CCC(c3cc(Nc4ccc5c(c4F)CNS5(=O)=O)n[nH]3)C2)C1=O (single isomer, unassigned) [Example 84b, cis-3-(3-(3-((4-fluoro-1,1-dioxido-2,3-dihydrobenzo[d]isothiazol-5-yl)amino)-1H-pyrazol-5-yl)cyclopentyl)-5,5-dimethylimidazolidine-2,4-dione] |
